In brackets after ≈: the same amount, converted by molar mass.
Experiments:
DNA gyrase subunit A [1] = target: DNA gyrase subunit A (Escherichia coli K-12, UniProt P0AES4); experiment: Inhibition of Escherichia coli ATCC 25922 DNA gyrase A assessed as reduction in enzyme-mediated supercoiling of relaxed pBR322 DNA by ethidium bromide staining based gel electrophoresis method
Staphylococcus aureus [2] = experiment: Antibacterial activity against Staphylococcus aureus ATCC 29213 after 16 to 24 hrs by broth microdilution method; type: functional
Escherichia coli [3] = experiment: Antibacterial activity against Escherichia coli ATCC 25922 after 16 to 24 hrs by broth microdilution method; type: functional
[4] = target: DNA topoisomerase 4 subunit A (Staphylococcus aureus, UniProt P0C1U9); experiment: Inhibition of Staphylococcus aureus ATCC 29213 DNA topoisomerase 4 subunit ParC assessed as reduction in decatenation of kinetoplast DNA incubated for 30 mins by ethidium bromide staining based gel electrophoresis method
[5] = target: T1, DNA topoisomerase 4 subunit A (Escherichia coli K-12, UniProt P0AFI2); experiment: Inhibition of Escherichia coli ATCC 25922 DNA topoisomerase 4 subunit ParC assessed as reduction in decatenation of kinetoplast DNA incubated for 30 mins by ethidium bromide staining based gel electrophoresis method
T1 sequence (P0AFI2 whole entry): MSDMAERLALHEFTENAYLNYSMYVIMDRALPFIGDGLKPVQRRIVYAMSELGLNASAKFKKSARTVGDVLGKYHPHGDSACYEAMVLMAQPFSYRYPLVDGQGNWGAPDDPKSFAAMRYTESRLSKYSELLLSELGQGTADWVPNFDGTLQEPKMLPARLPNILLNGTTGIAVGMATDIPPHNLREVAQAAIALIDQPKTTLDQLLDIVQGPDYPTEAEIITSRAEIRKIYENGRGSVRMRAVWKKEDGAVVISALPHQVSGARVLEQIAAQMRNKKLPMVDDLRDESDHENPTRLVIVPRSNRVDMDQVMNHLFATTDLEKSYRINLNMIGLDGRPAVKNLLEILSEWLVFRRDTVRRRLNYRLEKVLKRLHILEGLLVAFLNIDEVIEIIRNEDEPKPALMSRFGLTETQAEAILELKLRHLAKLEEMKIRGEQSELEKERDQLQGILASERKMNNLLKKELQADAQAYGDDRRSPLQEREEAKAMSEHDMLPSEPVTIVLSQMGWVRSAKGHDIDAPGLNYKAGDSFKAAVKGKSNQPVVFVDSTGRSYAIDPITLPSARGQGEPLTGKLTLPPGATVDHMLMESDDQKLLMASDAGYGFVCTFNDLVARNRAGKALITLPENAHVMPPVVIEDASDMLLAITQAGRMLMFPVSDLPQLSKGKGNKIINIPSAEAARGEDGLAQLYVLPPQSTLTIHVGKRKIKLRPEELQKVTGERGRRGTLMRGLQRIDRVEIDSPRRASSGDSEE

Staphylococcus aureus [6] = experiment: Antibacterial activity against Staphylococcus aureus BAA-1720 after 16 to 24 hrs by broth microdilution method; type: functional
Pseudomonas aeruginosa = experiment: Antibacterial activity against Pseudomonas aeruginosa ATCC 27853 after 16 to 24 hrs by CLSI method; type: functional
DNA gyrase subunit A [7] = target: DNA gyrase subunit A (Staphylococcus aureus, UniProt P20831); experiment: Inhibition of Staphylococcus aureus ATCC 29213 DNA gyrase A assessed as reduction in enzyme-mediated supercoiling of relaxed pBR322 DNA by ethidium bromide staining based gel electrophoresis method
Enterococcus faecalis [8] = experiment: Antibacterial activity against Enterococcus faecalis ATCC 29212 after 16 to 24 hrs by broth microdilution method; type: functional
Enterococcus faecium [9] = experiment: Antibacterial activity against Enterococcus faecium APV 00627 after 16 to 24 hrs by broth microdilution method; type: functional
Staphylococcus aureus [10] = experiment: Antibacterial activity against Staphylococcus aureus ATCC 29213 in presence of 50% human serum after 16 to 24 hrs by broth microdilution method; type: functional
Enterococcus faecalis [11] = experiment: Antibacterial activity against vancomycin and teicoplanin-resistant Enterococcus faecalis APV 00409 after 16 to 24 hrs by broth microdilution method; type: functional
Enterococcus faecium [12] = experiment: Antibacterial activity against vancomycin resistant and teicoplanin sensitive Enterococcus faecium APV 00420 after 16 to 24 hrs by broth microdilution method; type: functional
Enterococcus faecalis [13] = experiment: Antibacterial activity against vancomycin-sensitive Enterococcus faecalis APV 00404 after 16 to 24 hrs by broth microdilution method; type: functional
Staphylococcus aureus [14] = experiment: Antibacterial activity against Staphylococcus aureus BAA-1720 in presence of 50% human serum after 16 to 24 hrs by broth microdilution method; type: functional
Enterococcus faecalis [15] = experiment: Antibacterial activity against vancomycin-sensitive Enterococcus faecalis APV 00623 after 16 to 24 hrs by broth microdilution method; type: functional
Enterococcus faecium [16] = experiment: Antibacterial activity against Enterococcus faecium APV 00626 after 16 to 24 hrs by broth microdilution method; type: functional
Enterococcus faecium [17] = experiment: Antibacterial activity against vancomycin resistant and teicoplanin sensitive Enterococcus faecium APV 00553 after 16 to 24 hrs by broth microdilution method; type: functional
Enterococcus faecium [18] = experiment: Antibacterial activity against vancomycin and teicoplanin-resistant Enterococcus faecium APV 00424 after 16 to 24 hrs by broth microdilution method; type: functional
Haemophilus influenzae [19] = experiment: Antibacterial activity against quinolone-sensitive Haemophilus influenzae ATCC 49766 after 16 to 24 hrs by broth microdilution method; type: functional
Enterococcus faecium [20] = experiment: Antibacterial activity against vancomycin and teicoplanin-resistant Enterococcus faecium APV 00422 after 16 to 24 hrs by broth microdilution method; type: functional
Haemophilus influenzae [21] = experiment: Antibacterial activity against quinolone-sensitive Haemophilus influenzae H128 after 16 to 24 hrs by broth microdilution method; type: functional
Enterococcus faecalis [22] = experiment: Antibacterial activity against vancomycin-sensitive Enterococcus faecalis APV 00406 after 16 to 24 hrs by broth microdilution method; type: functional
Neisseria gonorrhoeae = experiment: Antibacterial activity against Neisseria gonorrhoeae ATCC 19424 after 16 to 24 hrs by broth microdilution method; type: functional
Klebsiella pneumoniae = experiment: Antibacterial activity against quinolone-sensitive Klebsiella pneumoniae ATCC 700603 after 16 to 24 hrs by broth microdilution method; type: functional
Enterococcus faecalis [23] = experiment: Antibacterial activity against vancomycin and teicoplanin-resistant Enterococcus faecalis APV 00408 after 16 to 24 hrs by broth microdilution method; type: functional
Staphylococcus aureus [24] = experiment: Antibacterial activity against Staphylococcus aureus; type: functional
Escherichia coli [25] = experiment: Antibacterial activity against Escherichia coli; type: functional

DNA topoisomerase 4 subunit A (Staphylococcus aureus, UniProt P0C1U9), sequence (P0C1U9 whole entry): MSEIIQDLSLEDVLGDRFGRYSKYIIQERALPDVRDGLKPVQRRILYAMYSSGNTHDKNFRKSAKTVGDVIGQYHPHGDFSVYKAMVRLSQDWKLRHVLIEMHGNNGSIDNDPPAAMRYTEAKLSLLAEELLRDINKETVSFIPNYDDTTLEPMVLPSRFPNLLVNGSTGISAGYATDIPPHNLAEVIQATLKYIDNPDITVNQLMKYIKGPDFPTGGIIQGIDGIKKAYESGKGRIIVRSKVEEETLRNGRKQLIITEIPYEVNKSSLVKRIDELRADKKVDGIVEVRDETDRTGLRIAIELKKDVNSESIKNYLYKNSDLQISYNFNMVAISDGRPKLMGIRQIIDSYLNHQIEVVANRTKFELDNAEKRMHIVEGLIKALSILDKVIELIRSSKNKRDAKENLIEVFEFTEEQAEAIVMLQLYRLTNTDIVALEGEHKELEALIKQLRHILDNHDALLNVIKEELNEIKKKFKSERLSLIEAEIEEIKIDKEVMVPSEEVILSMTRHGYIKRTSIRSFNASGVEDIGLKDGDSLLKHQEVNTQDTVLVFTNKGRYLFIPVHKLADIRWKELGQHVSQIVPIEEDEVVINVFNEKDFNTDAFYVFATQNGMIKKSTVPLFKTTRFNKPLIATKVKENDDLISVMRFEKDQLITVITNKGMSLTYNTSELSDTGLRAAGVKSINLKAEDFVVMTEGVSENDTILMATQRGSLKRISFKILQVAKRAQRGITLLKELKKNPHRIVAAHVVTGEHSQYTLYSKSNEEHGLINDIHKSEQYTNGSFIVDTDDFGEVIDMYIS
DNA gyrase subunit A (Escherichia coli K-12, UniProt P0AES4), sequence (P0AES4 whole entry): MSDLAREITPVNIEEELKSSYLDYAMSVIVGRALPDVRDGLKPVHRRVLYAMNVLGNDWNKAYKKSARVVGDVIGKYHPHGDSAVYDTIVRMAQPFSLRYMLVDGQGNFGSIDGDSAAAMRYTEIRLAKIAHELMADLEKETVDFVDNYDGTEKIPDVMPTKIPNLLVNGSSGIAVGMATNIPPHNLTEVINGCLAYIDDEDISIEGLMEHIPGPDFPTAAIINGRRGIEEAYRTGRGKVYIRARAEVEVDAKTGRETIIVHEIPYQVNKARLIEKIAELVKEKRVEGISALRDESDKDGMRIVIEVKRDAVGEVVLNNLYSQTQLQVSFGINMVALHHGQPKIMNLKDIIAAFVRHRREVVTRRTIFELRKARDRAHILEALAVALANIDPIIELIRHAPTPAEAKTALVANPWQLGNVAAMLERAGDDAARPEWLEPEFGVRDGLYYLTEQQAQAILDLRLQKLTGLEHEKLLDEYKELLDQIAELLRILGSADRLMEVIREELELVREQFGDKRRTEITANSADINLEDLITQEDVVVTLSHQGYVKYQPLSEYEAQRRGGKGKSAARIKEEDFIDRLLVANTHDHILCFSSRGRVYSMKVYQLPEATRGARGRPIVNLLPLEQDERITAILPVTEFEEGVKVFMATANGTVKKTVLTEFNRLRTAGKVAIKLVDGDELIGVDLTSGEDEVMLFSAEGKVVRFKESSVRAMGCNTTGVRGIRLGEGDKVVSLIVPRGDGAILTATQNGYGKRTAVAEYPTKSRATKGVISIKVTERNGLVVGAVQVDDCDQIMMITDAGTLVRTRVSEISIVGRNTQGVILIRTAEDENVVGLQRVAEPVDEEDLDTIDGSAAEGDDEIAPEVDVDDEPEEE
DNA gyrase subunit A (Staphylococcus aureus, UniProt P20831), sequence (P20831 whole entry): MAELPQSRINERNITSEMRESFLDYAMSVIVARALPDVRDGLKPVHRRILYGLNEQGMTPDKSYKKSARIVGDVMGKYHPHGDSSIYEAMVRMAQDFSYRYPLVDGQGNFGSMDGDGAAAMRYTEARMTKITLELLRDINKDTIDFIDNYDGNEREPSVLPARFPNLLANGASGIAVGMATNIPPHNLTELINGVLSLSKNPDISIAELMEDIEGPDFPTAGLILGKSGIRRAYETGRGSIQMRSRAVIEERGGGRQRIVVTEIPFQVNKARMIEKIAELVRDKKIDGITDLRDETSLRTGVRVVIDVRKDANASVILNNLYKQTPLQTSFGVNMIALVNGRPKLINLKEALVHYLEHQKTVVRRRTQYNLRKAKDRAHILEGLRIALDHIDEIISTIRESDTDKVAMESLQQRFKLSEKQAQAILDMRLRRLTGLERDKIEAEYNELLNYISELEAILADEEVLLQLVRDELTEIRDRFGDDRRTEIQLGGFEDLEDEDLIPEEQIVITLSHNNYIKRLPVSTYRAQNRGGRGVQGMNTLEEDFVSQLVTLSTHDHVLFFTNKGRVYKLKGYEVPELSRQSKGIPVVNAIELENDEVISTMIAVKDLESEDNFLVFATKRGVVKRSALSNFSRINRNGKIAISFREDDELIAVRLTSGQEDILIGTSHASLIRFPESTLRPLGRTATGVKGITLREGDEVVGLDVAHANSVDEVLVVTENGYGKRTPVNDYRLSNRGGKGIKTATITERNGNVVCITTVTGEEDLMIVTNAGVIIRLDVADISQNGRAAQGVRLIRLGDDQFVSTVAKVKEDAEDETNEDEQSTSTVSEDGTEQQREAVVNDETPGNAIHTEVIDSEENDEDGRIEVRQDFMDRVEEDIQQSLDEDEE

Compound | IC50 (DNA gyrase subunit A [1]) [nM] | MIC (Staphylococcus aureus [2]) [µg/mL] | MIC (Escherichia coli [3]) [µg/mL] | IC50 [4] [nM] | IC50 [5] [nM] | MIC (Staphylococcus aureus [6]) [µg/mL] | MIC (Pseudomonas aeruginosa) [µg/mL] | IC50 (DNA gyrase subunit A [7]) [nM] | other results
O=c1cc(NC[C@@H](O)CN2CCN(c3nccc4ccc(F)cc34)CC2)c2ccccc2o1 | 1100 | 1 (≈ 2.23 µM) | 2 (≈ 4.46 µM) | 3000 | 1300 | 1 (≈ 2.23 µM) | 4 (≈ 8.92 µM) | 1600 | 
O=c1cc(NCCCN2CCN(c3nccc4ccccc34)CC2)c2cc(F)ccc2o1 | 1200 | 4 (≈ 9.25 µM) | 0.5 (≈ 1.16 µM) | 3100 | 1300 | 2 (≈ 4.62 µM) |  | 3900 | 
O=c1nc(NC[C@@H](O)CN2CCN(c3nccc4ccc(F)cc34)CC2)c2ccccc2o1 | 1500 | 0.25 (≈ 0.556 µM) | 4 (≈ 8.9 µM) | 300 | 400 | 1 (≈ 2.22 µM) | > 8 | 600 | 
O=c1cc(NCCCN2CCN(c3nccc4ccccc34)CC2)c2ccccc2o1 | 500 | > 32 | 4 (≈ 9.65 µM) | 90000 | 10000 | > 32 | > 32 | 14000 | 
O=c1cc(NC[C@H](O)CN2CCN(c3nccc4ccc(F)cc34)CC2)c2ccccc2o1 | 1800 | 1 (≈ 2.23 µM) | 4 (≈ 8.92 µM) | 1700 | 1100 | 0.5 (≈ 1.11 µM) | 8 (≈ 17.8 µM) | 1500 | 
O=c1cc(NCCCN2CCN(c3nc(F)cc4ccccc34)CC2)c2ccccc2o1 | 900 | 4 (≈ 9.25 µM) | 4 (≈ 9.25 µM) | 7100 | 1900 | 2 (≈ 4.62 µM) | 4 (≈ 9.25 µM) | 2600 | 
O=C(NCCCN1CCN(c2nccc3ccccc23)CC1)c1ccccc1 | 112000 | 16 (≈ 42.7 µM) | 256 (≈ 684 µM) | 489000 | 130000 | 32 (≈ 85.5 µM) |  | 20000 | 
N#Cc1ccc2ccnc(N3CCN(CCCNc4cc(=O)oc5ccccc45)CC3)c2c1 | 2300 | 8 (≈ 18.2 µM) | 2 (≈ 4.55 µM) | 5100 | 1700 | 4 (≈ 9.1 µM) | > 8 | 6800 | 
O=c1cc(NCCCN2CCN(c3nccc4ccccc34)CC2)c2cc(Cl)ccc2o1 | 600 | 8 (≈ 17.8 µM) | 0.5 (≈ 1.11 µM) | 5500 | 1200 | 4 (≈ 8.91 µM) | 4 (≈ 8.91 µM) | 5200 | 
COc1ccc2ccnc(N3CCN(CCCNc4cc(=O)oc5ccccc45)CC3)c2c1 | 3200 | 2 (≈ 4.5 µM) | 4 (≈ 9 µM) | 6700 | 900 | 1 (≈ 2.25 µM) | 8 (≈ 18 µM) | 1100 | 
O=c1cc(NCCCN2CCN(c3nccc4ccc(Cl)cc34)CC2)c2ccccc2o1 | 900 | 4 (≈ 8.91 µM) | 2 (≈ 4.45 µM) | 5600 | 2400 | 2 (≈ 4.45 µM) | 8 (≈ 17.8 µM) | 4500 | 
O=c1cc(CC(O)CCN2CCN(c3nccc4ccc(F)cc34)CC2)c2ccccc2o1 (racemic) | 2800 | 1 (≈ 2.23 µM) | 8 (≈ 17.9 µM) | 1700 | 2500 | 4 (≈ 8.94 µM) | > 8 | 800 | 
O=c1cc(NCC(O)CN2CCN(c3nccc4ncccc34)CC2)c2cc(F)ccc2o1 (racemic) | 150 | 4 (≈ 8.9 µM) | 2 (≈ 4.45 µM) | 300 | 200 | 4 (≈ 8.9 µM) | 8 (≈ 17.8 µM) | 1100 | 
O=C(O)c1cn(C2CC2)c2cc(N3CCNCC3)c(F)cc2c1=O [CIPROFLOXACIN] |  | 0.25 to 0.5 (≈ 0.754 to 1.51 µM) |  |  |  | 4 to 64 (≈ 12.1 to 193 µM) |  |  | MIC (Enterococcus faecalis [8]): 1 µg/mL (≈ 3.02 µM); MIC (Enterococcus faecium [9]): 4 µg/mL (≈ 12.1 µM); MIC (Staphylococcus aureus [10]): 0.25 µg/mL; MIC (Enterococcus faecalis [11]): 32 µg/mL (≈ 96.6 µM); MIC (Enterococcus faecium [12]): > 32 µg/mL; MIC (Enterococcus faecalis [13]): 2 µg/mL (≈ 6.04 µM); MIC (Staphylococcus aureus [14]): > 4 µg/mL; MIC (Enterococcus faecalis [15]): 2 µg/mL (≈ 6.04 µM); MIC (Enterococcus faecium [16]): 16 µg/mL (≈ 48.3 µM); MIC (Enterococcus faecium [17]): 128 µg/mL (≈ 386 µM); MIC (Enterococcus faecium [18]): > 128 µg/mL; MIC (Haemophilus influenzae [19]): 0.015 µg/mL (≈ 0.0453 µM); MIC (Enterococcus faecium [20]): 128 µg/mL (≈ 386 µM); MIC (Haemophilus influenzae [21]): 0.008 µg/mL (≈ 0.0241 µM); MIC (Enterococcus faecalis [22]): 64 µg/mL (≈ 193 µM); MIC (Neisseria gonorrhoeae): ≤ 0.06 µg/mL; MIC (Klebsiella pneumoniae): 0.125 µg/mL (≈ 0.377 µM); MIC (Enterococcus faecalis [23]): 64 µg/mL (≈ 193 µM)
O=c1ccc2ncc(=O)n3c2n1C[C@H]3CN1CCC(NCc2cc3c(cn2)OCCC3)CC1 [GEPOTIDACIN] |  |  |  |  |  |  |  |  | MIC90 (Staphylococcus aureus [24]): 0.5 µg/mL (≈ 1.11 µM); MIC90 (Escherichia coli [25]): 4 µg/mL (≈ 8.92 µM)
CN[C@H](CC(C)C)C(=O)N[C@H]1C(=O)N[C@@H](CC(N)=O)C(=O)N[C@H]2C(=O)N[C@H]3C(=O)N[C@H](C(=O)N[C@H](C(=O)O)c4cc(O)cc(O)c4-c4cc3ccc4O)[C@H](O)c3ccc(c(Cl)c3)Oc3cc2cc(c3O[C@@H]2O[C@H](CO)[C@@H](O)[C@H](O)[C@H]2O[C@H]2C[C@](C)(N)[C@H](O)[C@H](C)O2)Oc2ccc(cc2Cl)[C@H]1O [VANCOMYCIN] |  |  |  |  |  |  |  |  | MIC (Enterococcus faecalis [8]): 4 µg/mL (≈ 2.76 µM); MIC (Enterococcus faecium [9]): > 128 µg/mL; MIC (Enterococcus faecalis [11]): > 128 µg/mL; MIC (Enterococcus faecium [12]): > 8 µg/mL; MIC (Enterococcus faecalis [13]): 2 µg/mL (≈ 1.38 µM); MIC (Enterococcus faecalis [15]): 2 µg/mL (≈ 1.38 µM); MIC (Enterococcus faecium [16]): > 128 µg/mL; MIC (Enterococcus faecium [17]): > 128 µg/mL; MIC (Enterococcus faecium [18]): > 128 µg/mL; MIC (Haemophilus influenzae [19]): > 8 µg/mL; MIC (Enterococcus faecium [20]): > 128 µg/mL; MIC (Haemophilus influenzae [21]): > 8 µg/mL; MIC (Enterococcus faecalis [22]): 1 µg/mL (≈ 0.69 µM); MIC (Klebsiella pneumoniae): > 8 µg/mL; MIC (Enterococcus faecalis [23]): > 128 µg/mL

Reference: ChEMBL document CHEMBL4373693, “Virtual Screening Approach and Investigation of Structure-Activity Relationships To Discover Novel Bacterial Topoisomerase Inhibitors Targeting Gram-Positive and Gram-Negative Pathogens” (J Med Chem, 2019)
